# Assay results from patent publication US20210386777A1, “GAS MIXTURES CONTAINING LOW CONC[…] XENON AND ARGON PROVIDE NEURO[…] INHIBITING THE CATALYTIC ACTIVITY OF TH[…]” ([…], priority 2017, published 2021).
# Experiments:
# [1] = test system: brain slices exposed to OGD; assay: Lactate dehydrogenase (LDH) release induced by oxygen-glucose deprivation (OGD) in brain slices; type: cell-based, rat
# Method: Rats were killed by decapitation under halothane anesthesia. The brains were removed and placed in ice-cold freshly prepared artificial cerebrospinal fluid (aCSF). Coronal brain slices (400 μm thickness) including the striatum (anteriority: from +1.2 to +2 mm from bregma) were cut using a tissue chopper (Mickie Laboratory Engineering Co., Gomshall, Surrey, UK).
# The effects of gas mixtures containing xenon and argon on the release of lactate dehydrogenase (LDH) induced by OGD were assessed as described previously. Before being used, brain slices were transferred into individual vials with 1.3 ml of freshly prepared oxygenated aCSF containing 120 mM NaCl, 2 mM KCl, 2 mM CaCl2, 26 mM NaHCO3, 1.19 mM MgSO4, 1.18 mM KH2PO4, 11 mM d-glucose, and 30 mM HEPES and allowed to recover at room temperature for 45 min. Then, brain slices were placed at 36±0.5° C. into individual vials containing 1.3 ml of freshly prepared aCSF, saturated, and continuously bubbled with 100% oxygen (25 ml/min per vial). After a 30-min period, the incubation aCSF solution was renewed with oxygenated aCSF maintained at 36° C., and the slices were then incubated for 1 h to allow recording of basal levels of LDH. Whereas control slices were incubated for an additional 20-min period in the same conditions, those corresponding to the ischemic group were incubated in a glucose-free solution, saturated, and continuously bubbled with 100% nitrogen (OGD slices). After this 20-min period of OGD, to mimic reperfusion and treatment, the medium was replaced in all groups with freshly prepared aCSF solution, saturated and continuously bubbled with either medical air or gas mixtures containing xenon and argon in volume proportions as described below (see gas pharmacology section; n=20-36).
# Xenon, argon, nitrogen, and oxygen were purchased from Air Liquide Sante (Paris, France). […]
# [2] = test system: rats injected with intracerebral NMDA; assay: NMDA-induced neuronal death in vivo (brain damage after intracerebral injection of NMDA); parameters: species or system rat
# Method: The effects of gas mixtures containing xenon and argon on the […] were assessed as described previously. On the day of surgery, rats were anesthetized with 1.5% halothane in oxygen alone in an anesthesia box and mounted on a stereotactic apparatus with the incisor bar set at 3.9 mm below the horizontal zero. A burr hole was drilled and a micropipette (less than […] at the tip) was lowered into the right striatum (anterior, 0.6 mm; lateral, 3.0 mm; ventral, 5.8 mm, from bregma) to allow injection of 70 nmol of NMDA in 1 μl of phosphate buffered solution (pH 7.4) over a 2-min period. After an additional 5-min period, the micropipette was removed, and the wounds were then sutured. During surgery, body temperature was kept at 37 ±0.5° C. with a feedback-controlled thermostatic heating pad (Harvard Apparatus Limited, Edenbridge, UK). The animals woke up in their home cage after about 10 min, where they were given free access to food and water. Sixty minutes after NMDA administration, rats were treated with medical air or gas mixtures containing xenon and argon (see gas pharmacological section). The number of rats per group was n=7-11.
# (§1) Xenon, argon, nitrogen, and oxygen were purchased from Air Liquide Sante (Paris, France). Medical air composed of 75 vol % nitrogen and 25 vol % oxygen, and xenon and argon mixtures containing 37.5 vol % xenon and 37.5 vol % argon (Xe—Ar-37.5), 25 vol % xenon and 25 vol % argon (Xe—Ar-25) or 15 vol % xenon and 15 vol % argon (Xe—Ar-15)—with 25 vol % oxygen and the remainder being nitrogen when needed—were obtained using computer-driven gas mass flowmeters, and an oxygen analyzer to check that the gas mixtures used were not hypoxic.
# [3] = molecular target: T1, recombinant form of human tPA (Homo sapiens, UniProt P00750); assay: In vitro tPA catalytic activity assay (initial rate method, chromogenic substrate); type: biochemical; settings: for catalytic efficiency of tPA: single gas alone at 25 vol %
# T1 construct: purchased Boehringer Ingelheim Actilyse
# T1 sequence (P00750 36-562): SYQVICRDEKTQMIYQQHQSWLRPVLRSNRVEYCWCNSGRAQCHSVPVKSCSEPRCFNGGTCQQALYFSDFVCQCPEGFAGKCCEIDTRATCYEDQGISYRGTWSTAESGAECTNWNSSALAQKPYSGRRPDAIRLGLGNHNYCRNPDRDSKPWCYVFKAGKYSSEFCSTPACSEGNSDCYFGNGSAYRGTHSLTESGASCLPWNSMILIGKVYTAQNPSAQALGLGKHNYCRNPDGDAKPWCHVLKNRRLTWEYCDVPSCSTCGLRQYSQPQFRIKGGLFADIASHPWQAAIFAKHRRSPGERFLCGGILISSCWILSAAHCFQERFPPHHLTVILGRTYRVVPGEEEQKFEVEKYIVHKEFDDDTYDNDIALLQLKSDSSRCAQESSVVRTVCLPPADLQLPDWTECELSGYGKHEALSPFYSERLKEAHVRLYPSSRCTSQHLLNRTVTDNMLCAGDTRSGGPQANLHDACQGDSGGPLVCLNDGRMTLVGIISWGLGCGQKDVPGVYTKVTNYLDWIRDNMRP
# Method: […] The recombinant form of human tPA (Actilyse®; Boehringer Ingelheim, Ingelheim am Rhein, Germany) and its specific chromogenic substrate methylsulfonyl-D-phenyl-glycil-arginine-7-amino-4-methylcoumarin acetate (Spectrozyme® XF, product 444; American Diagnostica, Stamford, CT) were diluted separately in 1 ml distilled water in 1.5-ml sterile tubes. […] The catalytic efficiency of tPA was assessed by the initial rate method by incubating 50 μl tPA with 50 μl substrate in a spectrofluorometer microplate reader set at 37° C.
# as §1
# [4] = molecular target: tPA and rtPA (Homo sapiens, UniProt P00750); settings: cited from earlier work
# Chain of tPA and rtPA (P00750 36-562): as above
# [5] = test system: rat model of thromboembolic stroke; settings: intraischemic administration; cited from earlier work
# [6] = cited from earlier work
# [7] = molecular target: elastase (Sus scrofa, UniProt P00772); settings: cited from earlier work; for binding to the active site of elastase: serine protease used as a model of tPA
# Chain of elastase (P00772 27-266): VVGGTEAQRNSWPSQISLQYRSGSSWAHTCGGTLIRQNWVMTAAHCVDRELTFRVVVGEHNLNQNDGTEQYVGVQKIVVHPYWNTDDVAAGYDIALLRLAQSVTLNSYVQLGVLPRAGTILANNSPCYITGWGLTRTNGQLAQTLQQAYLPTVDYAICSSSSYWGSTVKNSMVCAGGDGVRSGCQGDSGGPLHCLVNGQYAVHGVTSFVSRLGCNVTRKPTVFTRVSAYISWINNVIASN
Compound,OGD-induced LDH release ([1]; single gas alone at 15 vol %),NMDA-induced brain damage ([2]; single gas alone at 15 vol %),catalytic efficiency of tPA [3],inhibition of tPA and rtPA ([4]; xenon alone),tPA-induced thrombolysis and subsequent reduction of ischemic brain damage [5],neuroprotection ([6]; subanesthetic concentrations of 37.5 vol % or 50 vol %),possible therapeutic window of neuroprotection ([6]; xenon alone),binding to the active site of elastase [7],OGD-induced LDH release ([1]; single gas alone at 25 vol %),NMDA-induced brain damage ([2]; single gas alone at 25 vol %),"tPA-induced catalytic activity ([3]; argon alone, concentration not given)",inhibiting action on the thrombolytic properties of tPA and rtPA ([4]; neuroprotective concentrations of 50 vol % and above),affinity for elastase relative to xenon [7]
[Xe] [xenon],had no effect by itself on OGD-induced LDH release,had no effect by itself on NMDA-induced brain damage,had no effect on the catalytic efficiency of tPA,potent inhibitor of tPA and rtPA,dose-dependently inhibits,provided neuroprotection,about 8 h,bind to the active site of elastase,,,,,
[Ar] [argon],also had no effect by itself on OGD-induced LDH release,also had no effect by itself on NMDA-induced brain damage,decreased it significantly,,,,,bind to the active site of elastase,had no effect by itself on OGD-induced LDH release,had no effect by itself on NMDA-induced brain damage,has no effect,shows no inhibiting action,lower affinity than xenon
